Measurements published in patent US20250255893A1, “ISOPROPYL-D-GLUCOPYRANOSIDE DERIVATIVE, AND PREPARATION METHOD THEREFOR AND USE THEREOF” (NATIONAL TSING HUA UNIVERSITY, priority 2021, published 2025).

Legend:
cortical neurons = assay: In vitro cortical neuron repair (scratch injury, gap closure rate); format: cell-based, rat; settings: 72 hours
From the text: (§1) As depicted in FIG. 3, the degree of neuronal axon regeneration was quantified using the gap closure rate. White dashed lines indicate the borders of injury gap, the central black area represents the region scratched by the tip of a pipette tips. The newly regenerated neurites grow from the white dashed lines toward the center of the gap. To quantify the results, we measured the lengths of gap (Lg) and distance between regenerated neurites (Ln) every 50 m. After unbiasedly drawing ten lines of equal distance, the average distance between neurites is taken: Length of gap between regenerated neurons (Ln). Gap closure rate is calculated using the formula: (Lg−Ln)/Lg. Scale bar=100 m. Images were taken using Observer Z1 microscope.
(§2) Removed the brain of E18 rat embryos and dissected into cortex and hippocampus. Subsequently, the cortex and hippocampus were separated into cortical neurons and hippocampal neurons, respectively. Then, seeded cortical neurons on 48-well plates. The first day that neurons are cultured in vitro is defined as day in vitro 0 (DIV0). On DIV2, Cytosine beta-D-arabinoside (AraC) was added to neurons to inhibit the proliferation of glial cells. On DIV8, neurons were injured using pipette tips (p10 tips) and 9.674 nM to 96.74 μM Ampelopsisionoside was added. 0.1% DMSO served as the solvent control group, and the results in the figures were standardized against the 0.1% DMSO group. After 72 hours, immunostaining was performed. TUJ1 antibody was used to label neuronal cells to observe the regrowth of neurites. Scale bar=100 m. Images were taken using Observer Z1 microscope.
(§3) Removed the brain of E18 rat embryos and dissected into cortex and hippocampus. Subsequently, the cortex and hippocampus were separated into cortical neurons and hippocampal neurons, respectively. Then, seeded cortical neurons on 48-well plates. The first day that neurons are cultured in vitro is defined as day in vitro 0 (DIV0). On DIV2, Cytosine beta-D-arabinoside (AraC) was added to neurons to inhibit the proliferation of glial cells. […]

hippocampal neurons = assay: In vitro hippocampal neuron repair (scratch injury, gap closure rate); format: cell-based, rat; settings: 72 hours
Method: as §2, with “The experimental procedure is depicted in FIG. 2. Removed” for “Removed”, “seeded hippocampal” for “seeded cortical”, “to 967.4” for “to 96.74”, “neurites.” for “neurites. Scale bar=100 m.”
as §1
as §3, with “seeded hippocampal” for “seeded cortical”

injured brain sections = assay: Ex vivo 3D brain slice culture, neurite outgrowth after scalpel injury; format: cell-based; settings: 350 μm rat embryo brain sections, added every day, 96 hours, vs ddH2O
Method: (§4) The experimental procedure is depicted in FIG. 10. Took out the brain of rat embryos and embedded in low-melting agarose. The brains were sectioned using Leica microtome VT100. The tissue sections were collected with 350 μm thick and injured using a scalpel. ddH2O or Ampelopsisionside was added to injured brain sections every day. After 96 hours, immunostaining was performed. TUJ1 antibody was used to label neuron cells. GFAP antibody was used to label glial cells. DAPI was used to label nucleus. Scale bar=100 m. Images were taken using Zeiss LSM800 confocal microscope.
as §4, with “Byzantionoside B” for “Ampelopsisionside”
as §4, with “Roseoside” for “Ampelopsisionside”, “μm.” for “m.”

retinal explants = assay: Ex vivo retinal explant neuronal repair; format: cell-based, C57BL/6 mice; settings: five days, vs ddH2O
Method: Retinal explants were obtained from C57BL/6 mice at postnatal day 8. Following the sacrifice of mice, the eyes were enucleated, and the eyeballs were dissected using forceps and microscissors to separate the retina and remove the vitreous. Subsequently, the dissected retinas were quartered and trimmed along the edges of the tissue using microscissors. Each quarter was cultured on an 18 mm round coverslip and placed in a 12-well plate inside a CO2 incubator at 35° C. for five days. The culture medium was replaced daily with fresh medium containing either 13.5 µM or 135 µM Byzantionoside B. On the fifth day of culture, the retinal tissues were fixed with a mixture of 0.1% glutaraldehyde solution and 4% paraformaldehyde at room temperature for one hour. Immunostaining was performed using primary antibodies against the axonal marker beta-III-tubulin (TUJ1) and DAPI to label neurons and cell nuclei, respectively. Images were acquired using a super-resolution upright confocal microscope (LSM-800, Carl Zeiss). […] The ratio of neuronal fiber area to tissue boundary perimeter was then calculated to determine the unit perimeter neuronal fiber length.
Retinal explants were obtained from C57BL/6 mice at postnatal day 8. […] The ratio of neuronal fiber area to tissue boundary perimeter was then calculated to determine the unit perimeter neuronal fiber length.

Row | SMILES | dendritic outgrowth (gap closure rate) (cortical neurons; 9.674 nM to 96.74 μM, vs 0.1% DMSO) | neurite regrowth after injury (gap closure rate) (hippocampal neurons; 9.674 nM to 967.4 μM, vs 0.1% DMSO) | neurite outgrowth from injury site (injured brain sections) | neurite outgrowth (gap closure rate) (cortical neurons; 1.34 M to 26.84 M, vs ddH2O) | recovery of injured retinal neurons (unit perimeter neuronal fiber length) (retinal explants; 13.5 M or […]) | neurite regrowth after injury (gap closure rate) (hippocampal neurons; 0.13 M to 1342 μM, vs ddH2O) | dendritic outgrowth (gap closure rate) (cortical neurons; 1.29 M to 25.88 M, vs ddH2O) | recovery of injured retinal neurons (unit perimeter neuronal fiber length) (retinal explants; 13 μM or 130 μM) | neurite regrowth after injury (gap closure rate) (hippocampal neurons; 0.013 M to 1294 μM, vs ddH2O)
1 | C[C@H](/C=C/[C@@]1(O)[C@H](C)CC(=O)CC1(C)C)O[C@@H]1O[C@H](CO)[C@@H](O)[C@H](O)[C@H]1O [Ampelopsisionoside] | effectively promotes dendritic outgrowth | promotes neurite regrowth after injury | promotes neurite outgrowth |  |  |  |  |  | 
2 | CC1=CC(=O)CC(C)(C)[C@H]1CC[C@@H](C)O[C@@H]1O[C@H](CO)[C@@H](O)[C@H](O)[C@H]1O [Byzantionoside B] |  |  | promotes neurite outgrowth | effectively promotes neurite outgrowth | significant recovery of injured retinal neurons | promotes neurite regrowth after injury |  |  | 
3 | CC1=CC(=O)CC(C)(C)[C@@]1(O)/C=C/[C@@H](C)O[C@@H]1O[C@H](CO)[C@@H](O)[C@H](O)[C@H]1O [Roseoside] |  |  | promotes neurite outgrowth |  |  |  | effectively promotes dendritic outgrowth | significant recovery of injured retinal neurons | promotes neurite regrowth after injury
